Data on 15 molecules can be found in ChEMBL document CHEMBL1130895, “Syntheses of 2-[(3,5-dimethyl-4-methoxypyridyl)alkyl]-benzothiazolidine derivatives as a potential gastric H+/K(+)-ATPase inhibitor” (Bioorg Med Chem Lett, 1998).

Test [1] concerns the target Potassium-transporting ATPase (Homo sapiens) (UniProt P20648+P51164). The test can be described thus: Inhibition of H+/K+ ATPase activity in buffered solution (pH 7.4) at concentration […]. Format: protein-complex assay.
Test [2] deals with Potassium-transporting ATPase (Homo sapiens, UniProt P20648). The test can be described thus: Inhibition of H+/K+ ATPase activity in buffered solution (pH 7.4). Format: protein-complex assay.

Consider `COc1c(C)cnc(CCC2(C)Nc3ccc(Cl)cc3S2)c1C` (stereo not given), for which the inhibition in test [1] was 0%. On the same count and under the same terms, the result for `CCOC(=O)[C@@H]1CSC(CCc2ncc(C)c(OC)c2C)N1` (stereo not given in full) reads 19.8%.

`COc1c(C)cnc(CCC2(C)Nc3cc(C)ccc3S2)c1C` (stereo not given) gave an inhibition in test [1] of 0%. `COc1c(C)cnc(CCC2(C)Sc3ccccc3N2C)c1C` (stereo not given): the inhibition in test [1] worked out at 17%.

For `CC1(CCc2ccccn2)Nc2ccccc2S1` (stereo not given), the inhibition in test [1] was 0%. Take `COc1c(C)cnc(CCC2(C)Nc3cc(F)ccc3S2)c1C` (stereo not given): the inhibition in test [1] stood at 81%. This molecule yielded an IC50 in test [2] of 33 µM. The molecule `COc1c(C)cnc(CCCC2(C)Nc3ccccc3S2)c1C` (stereo not given) yielded an inhibition in test [1] of 0%.

`COc1c(C)cnc(CCC2(C)Nc3cc(C(F)(F)F)ccc3S2)c1C` (stereo not given) registered an inhibition in test [1] of 84.4%. In test [2], this molecule yielded an IC50 of 24 µM. In test [1], `COc1c(C)cnc(CC2Nc3ccccc3S2)c1C` (stereo not given) gave an inhibition of 58.5%. With `COc1c(C)cnc(CCC2(C)Nc3cc(Cl)ccc3S2)c1C` (stereo not given), the inhibition in test [1] was 20%. The IC50 in test [2] was greater than 100 µM. In test [1], `COc1ccc2[nH]c([S+]([O-])Cc3ncc(C)c(OC)c3C)nc2c1` (stereo not given) gave an inhibition of 95%. The molecule `COc1c(C)cnc(/C=C/C2(C)Nc3ccccc3S2)c1C` (stereo not given) showed an inhibition in test [1] of 61.1%. In addition, in test [2], the IC50 is greater than 100 µM. As to `COc1c(C)cnc(C2Nc3ccccc3S2)c1C` (stereo not given), the inhibition in test [1] was 0%. The same measure, in the same setting: the result for `COc1c(C)cnc(CCC2Nc3ccccc3S2)c1C` (stereo not given) reads 24.6%. `COc1c(C)cnc(CCC2(C)Nc3ccccc3S2)c1C` (stereo not given) had an inhibition in test [1] of 96.4%. In addition, 98 µM corresponded to half-maximal inhibition in test [2] (IC50).

The term inhibition denotes the change of the read-out against control, counted positive when it falls. As usually defined, the IC50 is the point on the concentration scale where inhibition reaches its midpoint. Read a low IC50 as greater potency.
